Test results as given in patent US20260207666A1, “CD38 AS INTEGRATION SITE FOR ENHANCED FUNCTION OF GENE-MODIFIED IMMUNE CELLS” (RESEARCH INSTITUTE AT NATIONWIDE CHILDREN'S HOSPITAL, priority 2022, published 2026).
Entries after “also recorded” stand apart in the source; their conditions may differ.

Tests used:
[1] = test system: human primary NK cells; test: CD38 and CD38-CAR expression by flow cytometry in NK cells; format: cell-based; settings: CAR inserted at CD38 locus, 75,000 vg/cell AAV6, seven days post-transduction (FIG. 18C)
Experimental: (§1) CD38^KO/CD38-CAR T cells or NK cells were generated by electroporation of HiFi Cas9 Nuclease V3 (Integrated DNA Technologies, Coralville, IA) and gRNA targeting exon 1 of the CD38 gene (5-[…]) (SEQ ID NO: 1). Knock-out cells were then returned to culture media and transduced within 30 minutes with 75,000 vg/cell of Adeno-Associated Virus Type 6 (AAV6, Andelyn Biosciences) vector containing the CAR expression cassette with CD38 homology arms.
(§2) Cells were stained in PBS buffer containing 2% FBS using anti-CD38/PE (Miltenyi Biotec, clone REA572), CD38 Fc Chimera Protein (R&D Systems, rhCD38) followed by secondary staining with Alexa Fluor 647 AffiniPure Goat Anti-Human IgG (Jackson ImmunoResearch), and Tonbo Ghost Dye 450 (Tonbo Biosciences, San Diego, CA, USA). See representative gating strategy (FIG. 25).

[2] = test system: human primary T cells; test: CD38 and CD38-CAR expression by flow cytometry in T cells; format: cell-based; settings: T cells, 75,000 vg/cell AAV6 (FIG. 22B)
Experimental: Human primary T cells were isolated from donor buffy coats using RosetteSep™ Human T Cell Enrichment Cocktail (Stem Cell Technologies, Vancouver, BC, Canada) as described for NK cells. Isolated T cells were stimulated on day 0 with Human T-Activator CD3/CD28 (Thermo Fisher Scientific). Stimulated T cells were cultured in RPMI 1640 media plus Glutamax, 10% FBS at a concentration of 1.0e6 cells/mL and supplemented with 50 IU/mL human recombinant IL-7 and IL-15 (Biolegend, San Diego, CA) every 2-3 days.
Two days after cytokine activation the T cells were electroporated and transduced as described below. After transduction the cells were expanded in RPMI 1640 media plus Glutamax, 10% FBS at 1.0e6 cells/mL with IL-7 and IL-15 supplemented at 50 IU/mL every 2-3 days for up to 10 days.
as §1, with “arms. […]” for “arms.”

[3] = test system: H929; test: 4-hour calcein AM cytotoxicity assay; format: cell-based, human; settings: H929 (MM), 4-hour assay
Experimental: (§3) CSTX002 feeder cells, derived from K562 and transduced to express membrane-bound IL-21 and 4-1BBL (referred to hereafter as FC21) were cultured in RMPI 1640 media containing 10% fetal bovine serum (FBS) at 37° C., 5% CO2. FC21 were treated with 100 Gy x-ray irradiation (Faxitron, Tucson AZ) prior to coculture with NK cells. Human AML cell line MV4-11, MM cell lines MM1S and H929, and BL cell lines Daudi and Raji were purchased from American type culture collection (ATCC). Primary human AML cells (AML10) were obtained from a pediatric patient with relapsed M5 AML and passaged in NOD-SCID mice. Primary human AML, Pre-T ALL, T-PLL, MM, and HSTCL were obtained from the Ohio State University Comprehensive Cancer Center Leukemia Tissue Bank. Tumor cell lines were cultured in RPMI 1640 media plus Glutamax, 10% FBS and routinely tested for mycoplasma contamination. Anonymized human buffy coats were obtained from the American Red Cross of Ohio (Columbus, OH, USA) as healthy donor lymphocyte source material, designated not human subjects research by the institutional review board.
(§4) 4-hour cytotoxicity assays were performed using calcein AM (Fisher Scientific, Hampton, NH). Briefly, target tumor cells were stained with 2 μg/mL calcein AM and co-cultured with effector cells at the indicated Effector:Target ratios. After 4 hours, culture supernatant was assessed by fluorimetry and percent specific lysis calculated using maximum and minimum controls. Cytotoxicity is plotted as percent specific lysis.

[4] = test system: MV4-11; test: 4-hour calcein AM cytotoxicity assay; format: cell-based, human; settings: MV4-11 (AML), 4-hour assay
Experimental: as §3, §4

[5] = test system: Raji; test: 4-hour calcein AM cytotoxicity assay; format: cell-based, human; settings: Raji (BL), 4-hour assay
Experimental: as §3, §4

[6] = test system: AML cell lines; test: CD38 surface expression after ATRA treatment (flow cytometry); format: cell-based, human; settings: AML cell lines with lowest baseline CD38, 10 nM ATRA for 48 hours
Source text: as §2
(§5) To further augment the antitumor activity of the CD38-CAR NK cells, we explored combination therapy with ATRA. ATRA is a differentiation agent that upregulates CD38 expression in many cell types. Across cell lines of AML, MM, and BL, we observed variable responses in CD38 expression after treatment with 10 nM ATRA for 48 hours (FIG. 20A). […] Thus, ATRA appears to have a cell line dependent effect on the increase in CD38 surface density and sensitivity to CAR NK cell killing (FIG. 20A, 20C).

[7] = test system: BL; test: as above; format: cell-based, human; settings: high CD38-expressing BL, 10 nM ATRA for 48 hours
Source text: as §2, §5

[8] = test system: MM cell lines; test: as above; format: cell-based, human; settings: intermediate to high CD38-expressing MM cell lines, 10 nM ATRA for 48 hours
Source text: as §2, §5

[9] = test system: CD38^KO NK cells; test: Effect of ATRA on NK cell function or viability; format: cell-based, human
[10] = test system: primary AML cells; test: Mass cytometry lysis assay; format: cell-based, human; settings: with ATRA, prior to co-culture with NK cells
Experimental: A primary AML patient cell sample (OSU leukemia tissue bank) was cultured in a 6-well plate (pre-coated with rat tail collagen [Corning]) in serum free media (SFEM) supplemented with a cytokine cocktail (IL-6, IL-3, FLT3, GMCSF, GCSF, and TPO at 6.66 ng/mL, EPO at 3.33 ng/mL, SCF at 20 ng/mL; Stem Cell Technologies). The primary AML samples were cultured for 24 hours with or without 10 nM ATRA. After 24 hours, wild-type or CD38^KO/CD38 CAR-NK cells were added at a ratio of 1:1 and co-cultured for 24 hours. Control wells were cultured in parallel. Cell were stained and events were acquired on the Helios CyTOF system (Fluidigm, Toronto, Canada). Cells were identified using markers and analyzed using SPADE.

Molecule	median AAV6 transduction efficiency [1] [%]	median AAV6 transduction efficiency [2] [%]	cytotoxicity compared to wildtype cells [3]	cytotoxicity compared to wildtype cells [4]	cytotoxicity compared to wildtype cells [5]	CD38 expression after ATRA treatment [6]	CD38 expression after ATRA treatment [7]	CD38 expression after ATRA treatment [8]	adverse effect on function or viability of CD38^KO NK cells [9]	live cell population of primary AML cells [10] [%]
V3: Isatuximab-based anti-CD38 second-generation CAR construct with CD3ζ, 41BB and CD8α TM/hinge, SEQ ID NO: 27/28	60.7	44.4	significant increase in cytotoxicity	significant increase in cytotoxicity	significant increase in cytotoxicity	–	–	–	–	–
V4: Isatuximab-based anti-CD38 CAR construct with reversed heavy/light chain order, SEQ ID NO: 29/30	61.9	35.9	significant increase in cytotoxicity	significant increase in cytotoxicity	significant increase in cytotoxicity	–	–	–	–	–
CC1=C(/C=C/C(C)=C/C=C/C(C)=C/C(=O)O)C(C)(C)CCC1 [ATRA, all-trans retinoic acid]	–	–	–	–	–	greatest proportional increase; also recorded: greatest increases	no observable increase	minor increase	did not have any adverse effect	77.5
